The values below are quoted from earlier work in patent US20130177609A1, “Compositions and Methods for Increasing Bioavailability of Topical Ophthalmic Drugs” (priority 2008, published 2013).

Structures are written as SMILES.

For this series the following is noted: cited from earlier work.

As to `CC(C)NCC(O)COc1ccc(CCOCC2CC2)cc1` (stereo not drawn) [betaxolol], the “Approximate Solubility in Water” value is 450 µg/mL. Take `CC(C)(C)NC[C@H](O)COc1cccc2c1CCCC2=O` [levobutonol]: the “Approximate Solubility in Water” value is 250 µg/mL.

Turning to `Nc1c(CC(=O)O)cccc1C(=O)c1ccc(Br)cc1` [bromfenac], the “Approximate Solubility in Water” value is 13 µg/mL. Turning to `CC(C)OC(=O)CCC/C=C\C[C@@H]1[C@@H](CC[C@@H](O)CCc2ccccc2)[C@H](O)C[C@@H]1O` [latanoprost], the “Approximate Solubility in Water” value is 52 µg/mL. For the compound `C[C@@H]1C[C@H]2[C@@H]3CCC4=CC(=O)C=C[C@]4(C)[C@@]3(F)[C@@H](O)C[C@]2(C)[C@@]1(O)C(=O)CO` [dexamethasone], the “Approximate Solubility in Water” value was 9 µg/mL. Consider `Brc1c(NC2=NCCN2)ccc2nccnc12` [brimonidine], for which the “Approximate Solubility in Water” value was 1500 µg/mL. For the compound `CCc1cccc2c3c([nH]c12)C(CC)(CC(=O)O)OCC3` (stereo not drawn) [etodolac], the “Approximate Solubility in Water” value was 16 µg/mL.

Consider `CN1C(C(=O)Nc2ccccn2)=C(O)c2ccccc2S1(=O)=O` [piroxicam], for which the “Approximate Solubility in Water” value is 30 µg/mL. As for `NC(=O)Cc1cccc(C(=O)c2ccccc2)c1N` [nepafenac], the “Approximate Solubility in Water” value is 20 to 50 µg/mL.
